Test results from PubChem BioAssay (NCI).
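1) Cells in 96-well plates. 2) Compound, 48 h, 5 concentrations. 3) Linear interpolation between surrounding doses. 4) Unreached endpoint = highest concentration. TGI denotes the concentration required for complete inhibition of growth.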

How the values were obtained:
Test in all cases: DTP human tumour cell line panel, 48 h
[1] = test system: HT29 colon
[2] = test system: NCI/ADR-RES ovarian
[3] = test system: SK-MEL-5 melanoma
[4] = test system: SF-295 CNS
[5] = test system: ACHN renal
[6] = test system: RXF 393 renal
[7] = test system: A498 renal
[8] = test system: CAKI-1 renal
[9] = test system: DU-145 prostate
[10] = test system: SW-620 colon
[11] = test system: HL-60(TB) leukemia
[12] = test system: HCT-116 colon
[13] = test system: MDA-MB-435
[14] = test system: T-47D breast
[15] = test system: BT-549 breast
[16] = test system: UO-31 renal
[17] = test system: OVCAR-8 ovarian
[18] = test system: EKVX NSCLC
[19] = test system: HCC-2998 colon
[20] = test system: NCI-H522 lung
[21] = test system: M14 melanoma
[22] = test system: OVCAR-3 ovarian
[23] = test system: UACC-257 melanoma
[24] = test system: OVCAR-4 ovarian
[25] = test system: MDA-MB-231 breast
[26] = test system: COLO 205 colon
[27] = test system: NCI-H460 lung
[28] = test system: UACC-62 melanoma
[29] = test system: NCI-H226 lung
[30] = test system: SK-MEL-28 melanoma
[31] = test system: HOP-92 NSCLC
[32] = test system: OVCAR-5 ovarian
[33] = test system: MCF7 breast
[34] = test system: SNB-19 CNS
[35] = test system: MALME-3M melanoma
[36] = test system: SN12C renal
[37] = test system: SNB-75 CNS
[38] = test system: SR leukemia
[39] = test system: SK-OV-3 ovarian
[40] = test system: CCRF-CEM leukemia
[41] = test system: A549 NSCLC
[42] = test system: HCT-15 colon
[43] = test system: LOX IMVI melanoma
[44] = test system: MOLT-4 leukemia
[45] = test system: K-562 leukemia
[46] = test system: MDA-N
[47] = test system: 786-0 renal
[48] = test system: U251 CNS
[49] = test system: SF-268 CNS
[50] = test system: TK-10 renal
[51] = test system: HOP-62 NSCLC
[52] = test system: SK-MEL-2 melanoma
[53] = test system: PC-3 prostate
[54] = test system: KM12 colon
[55] = test system: HS 578T breast
[56] = test system: SF-539 CNS
[57] = test system: NCI-H23 lung
[58] = test system: RPMI-8226 leukemia
[59] = test system: IGROV1 ovarian
[60] = test system: M19-MEL melanoma
[61] = test system: DMS 273 small cell lung
[62] = test system: KM20L2 colon
[63] = test system: LXFL 529 NSCLC
[64] = test system: SNB-78 CNS
[65] = test system: DMS 114 small cell lung

Measured: TGI

COC(=O)C1=NN2c3ccccc3CN([C@@H](C)c3ccccc3)C(=O)[C@H]2[C@@H]1C
30.1 µM: [3]
95 µM: [37]
66.8 µM: [26]
88.3 µM: [14]
95.3 µM: [15]
not listed: [58] | [59] | [60] | [61] | [62] | [63] | [64] | [65]
> 100 µM: all other assays above

O=c1oc2c(ccc3c(O)cccc32)c2c1CCCC2
39.8 µM: [6]
40.8 µM: [49]
73.6 µM: [15]
19.9 µM: [37]
58 µM: [4]
80.8 µM: [7]
48.4 µM: [51]
50.1 µM: [31]
55.9 µM: [48]
47.1 µM: [25]
27.2 µM: [28]
not listed: [39] | [42] | [60] | [61] | [62] | [63] | [64] | [65]
> 100 µM: all other assays above

O=c1[nH]c2c(c3ccccc13)CCc1ccccc1-2
not listed: [2] | [7] | [9] | [11] | [13] | [14] | [15] | [21] | [25] | [27] | [28] | [31] | [33] | [40] | [43] | [46] | [51] | [53] | [55]
> 100 µM: all other assays above

CC(C)OP(=O)(OC(C)C)C(Nc1cccc(C(F)(F)F)c1)c1ccccc1 (stereo not drawn)
84 µM: [26]
76.5 µM: [3]
65.5 µM: [44]
87.3 µM: [58]
not listed: [10] | [60] | [61] | [62] | [63] | [64] | [65]
> 100 µM: all other assays above
